Results: publication PMC4732562 (2015)

Test system: 3',3'-cGAMP riboswitch (Gs1761 aptamer, A2G/U72C/C73U) (RNA, riboswitch) GGUACACGACAAUACUAAACCAUCCGCGAGGAUGGGGCGGAAAGCCUAAGGGUCUCCCUGAGACAGCCGGGCUGCCGAAAUAUC
Experiment: ITC
Conditions: 35 °C; one set of sites; buffer in supplement

Kd [nM] | Compound
930 | Nc1nc2c(ncn2[C@@H]2O[C@@H]3COP(=O)(O)O[C@H]4[C@@H](O)[C@H](n5cnc6c(=O)[nH]c(N)nc65)O[C@@H]4COP(=O)(O)O[C@H]3[C@H]2O)c(=O)[nH]1
70 | Nc1nc2c(ncn2[C@@H]2O[C@@H]3COP(=O)(O)O[C@H]4[C@@H](O)[C@H](n5cnc6c(N)ncnc65)O[C@@H]4COP(=O)(O)O[C@H]3[C@H]2O)c(=O)[nH]1
